Reference: article PMC12118597 (Science Advances, 2025)
Where two headings read alike, the source gives them in different places.

Target: SARS-CoV-2 NSP3 macrodomain (Mac1) (Severe acute respiratory syndrome coronavirus 2, UniProt P0DTD1)
Type: binding
Details: for PanDDA run, overall: Hit / PanDDA run, overall: Modeled / PanDDA run, DMSO background map: 1-BDC / PanDDA run, DMSO background map: Hit / PanDDA run, overall: Modeling comment / PanDDA run, TFA/DMSO background map: 1-BDC / PanDDA run, TFA/DMSO background map: Hit: crystal soak 10 mM; for PanDDA run, overall: Hit / PanDDA run, overall: Modeled / PanDDA run, overall: Modeling comment: P43 crystal form; for Total number of conformations: ligand conformations modeled in the crystal structure; for 2*(1-BDC) (%): occupancy estimate from PanDDA
[1] = PanDDA background density correction factor
[2] = TRUE = crystal structure with ligand obtained
[3] = refined crystallographic occupancy
[4] = site of ligand in X-ray crystal structure
[5] = ligand-bound crystal structure obtained (TRUE)
[6] = site occupied in X-ray crystal structure

SMILES	Occupancy difference (refined_occupancy - 2*(1-BDC))	1-BDC [1]	X-ray crystal structure [2]	PanDDA run, overall: Hit	PanDDA run, overall: Modeled	PanDDA run, DMSO background map: 1-BDC	PanDDA run, DMSO background map: Hit	Total number of conformations	2*(1-BDC) (%)	Refined ligand occupancy (%) [3]	Binding site [4]	PanDDA run, overall: Modeling comment	PanDDA run, TFA/DMSO background map: 1-BDC	PanDDA run, TFA/DMSO background map: Hit	Binding site (site of Mac1 occupied in the X-ray crystal structure)	X-ray crystal structure [5]	Binding site [6]	1-BDC (PanDDA background density correction, 1-BDC)	Refined ligand occupancy (%) (crystallographic refinement)
CCCC(CO)Nc1ncnc2[nH]ccc12 (centres unmarked) [AVI-3643]	0	0.16	TRUE	TRUE	TRUE	0.16	TRUE	1	32%	32%	Adenosine								
C#CCC(CO)Nc1ncnc2[nH]ccc12 (centres unmarked) [AVI-3644]	0	0.18	TRUE	TRUE	TRUE	0.18	TRUE	1	36%	36%	Adenosine								
O=C(O)C(F)(F)F.OCC(Nc1ncnc2[nH]ccc12)C1CCCO1 (centres unmarked) [AVI-3645]				TRUE		0.22	TRUE					Weak density, not modeled	0.12	TRUE					
OC1CCCN(c2ncnc3[nH]ccc23)C1 (centres unmarked) [AVI-3646]	0	0.22	TRUE	TRUE	TRUE	0.22	TRUE	1	44%	44%					Adenosine				
CC(C)(C)CC(CO)Nc1ncnc2[nH]ccc12 (centres unmarked) [AVI-3648]	0	0.13	TRUE	TRUE	TRUE	0.13	TRUE	1	26%	26%	Adenosine								
OCC(Nc1ncnc2[nH]ccc12)C1CCCC1 (centres unmarked) [AVI-3649]	0	0.16	TRUE	TRUE	TRUE	0.16	TRUE	1	32%	32%	Adenosine								
OCC(Cc1c[nH]c2ccccc12)Nc1ncnc2[nH]ccc12 (centres unmarked) [AVI-3650]	0	0.15	TRUE	TRUE	TRUE	0.15	TRUE	2	30%	30%	Adenosine								
OC(c1ccccc1)C1CCCN1c1ncnc2[nH]ccc12 (centres unmarked) [AVI-3652]	0	0.22		TRUE	TRUE	0.22	TRUE	1	44%	44%						TRUE	Adenosine		
O=C(O)C(F)(F)F.OC[C@@H](CCc1ccccc1)Nc1ncnc2[nH]ccc12 [AVI-3654]				TRUE		0.14	TRUE					Weak density for phenyl, not modeled	0.07	TRUE					
CC1CCN(c2ncnc3[nH]ccc23)C1CO (centres unmarked) [AVI-3655]	0	0.21		TRUE	TRUE	0.21	TRUE	1	42%	42%						TRUE	Adenosine		
CO[C@@H]1C[C@H](CO)N(c2ncnc3[nH]ccc23)C1 [AVI-3656]	0	0.26		TRUE	TRUE	0.26	TRUE	1	52%	52%						TRUE	Adenosine		
Cn1cc(CC(CO)Nc2ncnc3[nH]ccc23)cn1 (centres unmarked) [AVI-3657]	0	0.15	TRUE	TRUE	TRUE	0.15	TRUE	1	30%	30%	Adenosine								
OCC(CC1OCCO1)Nc1ncnc2[nH]ccc12 (centres unmarked) [AVI-3658]	0	0.2	TRUE	TRUE	TRUE	0.2	TRUE	1	40%	40%	Adenosine								
OCC(Nc1ncnc2[nH]ccc12)c1ccco1 (centres unmarked) [AVI-3659]	0	0.16	TRUE	TRUE	TRUE	0.16	TRUE	1	32%	32%	Adenosine								
OCC(CC1CCCO1)Nc1ncnc2[nH]ccc12 (centres unmarked) [AVI-3660]	0	0.23	TRUE	TRUE	TRUE	0.23	TRUE	1	46%	46%	Adenosine								
OC1CCN(c2ncnc3[nH]ccc23)C1 (centres unmarked) [AVI-3661]				TRUE	TRUE	0.15	TRUE		30%							TRUE	Adenosine	0.15	40%
OCC(CC1CC1)Nc1ncnc2[nH]ccc12 (centres unmarked) [AVI-3662]	0	0.14	TRUE	TRUE	TRUE	0.14	TRUE	1	28%	28%	Adenosine	Distal site, weak density, not modeled							
OCC(CC1CCOC1)Nc1ncnc2[nH]ccc12 (centres unmarked) [AVI-3665]	0	0.17	TRUE	TRUE	TRUE	0.17	TRUE	1	34%	34%	Adenosine								
CCC(Nc1ncnc2[nH]ccc12)C(C)(C)O (centres unmarked) [AVI-3667]	0	0.14	TRUE	TRUE	TRUE	0.14	TRUE	1	28%	28%	Adenosine								
CC(C)CCC(CO)Nc1ncnc2[nH]ccc12.O=C(O)C(F)(F)F (centres unmarked) [AVI-3668]				TRUE		0.15	TRUE					Weak density, not modeled	0.09	TRUE					
OCC(Cc1nccs1)Nc1ncnc2[nH]ccc12 (centres unmarked) [AVI-3673]	0	0.19	TRUE	TRUE	TRUE	0.19	TRUE	1	38%	38%	Adenosine								
